# From article PMC6753226, “Highly Efficient Preparation of Cyclic Dinucleotides via Engineering of Dinucleotide Cyclases in Escherichia coli” (Frontiers in Microbiology, 2019)
# Target: T1, STING (Homo sapiens, UniProt Q86WV6, H232R)
# T1 construct: gene STING1; carboxy-terminal domain (STING^R232/CTD; CTD printed as residues 149–379)
# Experiment: isothermal titration calorimetry (ITC)
# Format: binding
# T1 sequence (Q86WV6 149-379 H232R): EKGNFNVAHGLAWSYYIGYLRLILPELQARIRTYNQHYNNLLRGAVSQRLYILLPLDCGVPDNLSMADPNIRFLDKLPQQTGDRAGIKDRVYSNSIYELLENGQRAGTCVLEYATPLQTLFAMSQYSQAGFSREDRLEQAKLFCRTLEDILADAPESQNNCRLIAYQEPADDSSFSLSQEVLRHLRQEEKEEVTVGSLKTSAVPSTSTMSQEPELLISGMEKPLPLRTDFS
smiles,measurement,value
Nc1nc2c(ncn2[C@@H]2O[C@@H]3CO[P@](=O)(O)O[C@H]4[C@@H](O)[C@H](n5cnc6c(=O)[nH]c(N)nc65)O[C@@H]4CO[P@](=O)(O)O[C@H]3[C@H]2O)c(=O)[nH]1 [c-di-GMP],Kd,4.09 µM
